Assays:
HaCaT cells = assay: tert-Butyl hydroperoxide cytotoxicity (MTT, median effect analysis) and protection by sulforaphane; assay type: cell-based, human; conditions: tert-butyl hydroperoxide 8 h
Description: (§1) Mouse L1210 leukemia cells, a gift from Dr. Joseph G. Cory, East Carolina State University, Greenville, N.C., were grown in RPMI 1640 medium supplemented with 10% horse serum. All cultures were incubated in a humidified atmosphere of 5% CO2 at 37° C. Media and sera were obtained from Life Technologies (Rockville, Md.).
(§2) All experiments were performed in 96-well microliter plates. ARPE-19 and HaCaT cells were seeded at 10,000 cells per well and grown for 24 h before addition of sulforaphane, whereas L1210 cells (5,000 cells/well) were not incubated before sulforaphane treatment. Solutions of sulforaphane (5 mM) in dimethyl sulfoxide were diluted with the cognate culture medium to provide final inducer concentrations of 0.16-5.0 μM. The final DMSO concentrations were 0.1% by volume.
(§3) Cell viability was determined by spectroscopic measurement of the reduction of MTT (Carmichael, J., DeGraff, W. G., Gazdar, A. F., Minna, J. D. & Mitchell, J. B. (1987) Cancer Res. 47, 936-942). The culture media were discarded after the designated incubation periods, the cells were washed three times with PBS by use of a microtiter plate washer (Ultrawash Plus, Dynex Technologies, Chantilly, Va.). Each well then received 150 μl of an MTT solution (0.5 mg/ml) in serum-free medium. The plates were incubated for 2 h at 37° C., the MTT solution was discarded, 100 μl of DMSO were added to each well, and the plates were shaken at 200 rpm on an orbital shaker for 5 min. The absorbances of the wells were determined at 555 nm with a microtiter plate reader (Spectra Max Plus, Molecular Devices, Sunnyvale, Calif.). The absorbance of reduced MIT was then compared at each inducer and oxidant concentration to that of untreated control cells that received only the vehicle in which sulforaphane (DMSO) and menadione (DMSO or PBS) were dissolved. In each experiment three identical 96-well plates were used and the means of the absorbance values, the standard deviations of these means, and their coefficients of variation were calculated.
(§4) Dose-effect analyses were performed according to the Median Effect Equation, by use of a computer program (Chou, T. C. & Hayball, M. (1996) CalcuSyn for Windows 3.1 and 95: multiple dose effect analyzer and manual for IBM-PC, Biosoft, Cambridge, U.K). The equation: fa/fu=[D/Dm]^m, where fa is the fraction of cells affected by the oxidant, fu is the fraction unaffected (i.e., 1-fa), D is the dose of oxidant required to produce the effect fa, Dm is the concentration of oxidant required to produce a 50% effect, i.e., when fa=fu, and the slope m is a measure of the sigmoidicity of the dose-response curve, and is therefore a measure of cooperativity. The results are analyzed by plotting log(fa/fu) with respect to log D of the oxidant. The computer program provides the slope (m) of the curves, and the goodness of fit (r^2) to linearity.

L1210 cells = assay: Menadione cytotoxicity (MTT, median effect analysis) and protection by sulforaphane; assay type: cell-based, mouse; conditions: menadione 2 h
Description: as §1, §2, §3, §4

[1] = test system: Retina Pigment Epithelium Cell; assay: Photooxidative damage by all-trans-retinal and 365 nm light, protection by sulforaphane (cell survival); assay type: cell-based, human
Description: There is accumulating evidence that chronic exposure to sunlight plays a role in some degenerative diseases, for instance, age-related macular degeneration (AMD). We have, therefore, carried out an experiment of protection of human RPE cells against photooxidative damage mediated by all-trans-retinal, which exists in human retina and is a critical component of the visual cycle.
as §3
To examine the protective effect of sulforaphane against photooxidative damage mediated by all-trans-retinal and light exposure, the cells were treated with 0-100 μM of all-trans-retinal for 2 hours and light exposure at 365 nm for 20 min after incubation with 0-5 μM of sulforaphane for 24 hours.

glutathione = conditions: ARPE-19
Description: Cells were lysed by addition of a digitonin solution (0.8 mg/ml digitonin in 2 mM EDTA, pH 7.8), incubated at 37° C. for 20 min, gently shaken for 20 min at 25° C., and centrifuged at 1,500×g for 20 min at 4° C.
Total glutathione (oxidized and reduced) was determined by reduction of 5,5′-dithiobis-2-nitrobenzoic acid (DTNB) in a glutathione reductase-coupled assay in 96-well microliter plates (Ritchie, J. P., Jr., Skowronski, L., Abraham, P. & Leutzinger, Y. (1996) Clin. Chem. 42, 64-70). Briefly, 30 μl of lysates were mixed with 60 μl of cold 2.5% metaphosphoric acid, stored at 4° C. for 10 min, and centrifuged for 20 min at 1,500×g at 4° C. […] After 5 min incubation at 25° C., 50 μl of 0.72 mM NADPH were added to each well, and the initial reaction rates were determined at 412 nm. Calibration curves for pure GSH were included in each assay.

[2] = after sulforaphane 0.63 μM 24 h
[3] = after sulforaphane 1.25 μM 24 h
[4] = after sulforaphane 2.50 μM 24 h
[5] = after sulforaphane 0.16 μM 24 h
[6] = after sulforaphane 0.31 μM 24 h

With `C[S+]([O-])CCCCN=C=S` (centres unmarked) [Sulforaphane] the “Dm (median effect concentration) of tert-butyl hydroperoxide” value (“Dm … of tert-butyl hydroperoxide” for short) (HaCaT cells; [2]) was 113 µM, the “m (slope of median effect plot) for tert-butyl hydroperoxide” value (HaCaT cells; [2]) was 0.894 and the “Dm … of tert-butyl hydroperoxide” value (HaCaT cells; [3]) was 166 µM. The “m (slope of median effect plot) for tert-butyl hydroperoxide” value (HaCaT cells; [3]) was 0.921, the “Dm … of tert-butyl hydroperoxide” value (HaCaT cells; [4]) was 200 µM and the “m (slope of median effect plot) for tert-butyl hydroperoxide” value (HaCaT cells; [4]) was 0.768. For the same compound, the “Dm (median effect concentration) of menadione” value (“Dm … of menadione” for short) (L1210 cells; [5]) was 19.6 µM, the “m (slope of median effect plot) for menadione” value (L1210 cells; [5]) was 0.864 and the “Dm … of menadione” value (L1210 cells; [6]) was 26.5 µM. For the same compound, the “m (slope of median effect plot) for menadione” value (L1210 cells; [6]) was 1.00, the “Dm … of menadione” value (L1210 cells; [2]) was 36.2 µM and the “m (slope of median effect plot) for menadione” value (L1210 cells; [2]) was 1.17. It also gave a Survival ([1]; 365 nm light, all-trans-retinal 0 μM, sulforaphane 1.25 μM 24 h) of 100.0%, a Survival ([1]; 365 nm light, all-trans-retinal 0 μM, sulforaphane 2.50 μM 24 h) of 100.6% and a Survival ([1]; 365 nm light, all-trans-retinal 0 μM, sulforaphane 5.00 μM 24 h) of 100.4%. The Survival ([1]; 365 nm light, all-trans-retinal 12.5 μM, sulforaphane 1.25 μM 24 h) was 95.4%, the Survival ([1]; 365 nm light, all-trans-retinal 12.5 μM, sulforaphane 2.50 μM 24 h) was 96.5% and the Survival ([1]; 365 nm light, all-trans-retinal 12.5 μM, sulforaphane 5.00 μM 24 h) was 103.4%. The Survival ([1]; 365 nm light, all-trans-retinal 25 μM, sulforaphane 1.25 μM 24 h) was 54.4%, the Survival ([1]; 365 nm light, all-trans-retinal 25 μM, sulforaphane 2.50 μM 24 h) was 63.8% and the Survival ([1]; 365 nm light, all-trans-retinal 25 μM, sulforaphane 5.00 μM 24 h) was 72.2%. It also gave a Survival ([1]; 365 nm light, all-trans-retinal 50 μM, sulforaphane 1.25 μM 24 h) of 11.7%, a Survival ([1]; 365 nm light, all-trans-retinal 50 μM, sulforaphane 2.50 μM 24 h) of 15.2% and a Survival ([1]; 365 nm light, all-trans-retinal 50 μM, sulforaphane 5.00 μM 24 h) of 27.4%. The Survival ([1]; 365 nm light, all-trans-retinal 100 μM, sulforaphane 1.25 μM 24 h) was 3.4%, the Survival ([1]; 365 nm light, all-trans-retinal 100 μM, sulforaphane 2.50 μM 24 h) was 5.2% and the Survival ([1]; 365 nm light, all-trans-retinal 100 μM, sulforaphane 5.00 μM 24 h) was 8.2%. It also gave a Survival ([1]; 365 nm light, column Control, sulforaphane 1.25 μM 24 h) of 100.7%, a Survival ([1]; 365 nm light, column Control, sulforaphane 2.50 μM 24 h) of 97.4% and a Survival ([1]; 365 nm light, column Control, sulforaphane 5.00 μM 24 h) of 101.4%. It also gave a Survival ([1]; in dark, all-trans-retinal 0 μM, sulforaphane 1.25 μM 24 h) of 96.6%, a Survival ([1]; in dark, all-trans-retinal 0 μM, sulforaphane 2.50 μM 24 h) of 99.4% and a Survival ([1]; in dark, all-trans-retinal 0 μM, sulforaphane 5.00 μM 24 h) of 103.1%. It also gave a Survival ([1]; in dark, all-trans-retinal 12.5 μM, sulforaphane 1.25 μM 24 h) of 96.3%, a Survival ([1]; in dark, all-trans-retinal 12.5 μM, sulforaphane 2.50 μM 24 h) of 101.5% and a Survival ([1]; in dark, all-trans-retinal 12.5 μM, sulforaphane 5.00 μM 24 h) of 104.6%. It also gave a Survival ([1]; in dark, all-trans-retinal 25 μM, sulforaphane 1.25 μM 24 h) of 97.7%, a Survival ([1]; in dark, all-trans-retinal 25 μM, sulforaphane 2.50 μM 24 h) of 98.3% and a Survival ([1]; in dark, all-trans-retinal 25 μM, sulforaphane 5.00 μM 24 h) of 104.8%. For the same compound, the Survival ([1]; in dark, all-trans-retinal 50 μM, sulforaphane 1.25 μM 24 h) was 98.4%, the Survival ([1]; in dark, all-trans-retinal 50 μM, sulforaphane 2.50 μM 24 h) was 99.9% and the Survival ([1]; in dark, all-trans-retinal 50 μM, sulforaphane 5.00 μM 24 h) was 106.8%. It also gave a Survival ([1]; in dark, all-trans-retinal 100 μM, sulforaphane 1.25 μM 24 h) of 74.7%, a Survival ([1]; in dark, all-trans-retinal 100 μM, sulforaphane 2.50 μM 24 h) of 75.6% and a Survival ([1]; in dark, all-trans-retinal 100 μM, sulforaphane 5.00 μM 24 h) of 84.6%. It also gave a Survival ([1]; in dark, column Control, sulforaphane 1.25 μM 24 h) of 96.7%, a Survival ([1]; in dark, column Control, sulforaphane 2.50 μM 24 h) of 99.5% and a Survival ([1]; in dark, column Control, sulforaphane 5.00 μM 24 h) of 105.6%. For the same compound, the “concentrations of GSH in cytosols” value (glutathione; sulforaphane 0-5.0 μM 24 h) was “rose with exposure to increasing concentrations of sulforaphane” and the “increase of GSH levels” value (glutathione; sulforaphane 2.5 μM 24 h) was “about 50%”.
